{"source": "patent US4992417A", "about": "(Mount Sinai School of Medicine, priority 1988, dated 1991)", "key": {"insulin receptor": {"target": "insulin receptor (Homo sapiens, UniProt P06213)", "details": "cited from earlier work; for potency compared with natural insulin: literature"}, "[1]": {"target": "T1, insulin receptors in rat liver plasma membranes (Rattus norvegicus, UniProt P15127)", "T1 construct": "Rat liver plasma membranes were prepared as described by Horvat et al; from tissue; host or cells: rat liver plasma membranes", "T1 sequence (P15127 27-759 limits assumed)": "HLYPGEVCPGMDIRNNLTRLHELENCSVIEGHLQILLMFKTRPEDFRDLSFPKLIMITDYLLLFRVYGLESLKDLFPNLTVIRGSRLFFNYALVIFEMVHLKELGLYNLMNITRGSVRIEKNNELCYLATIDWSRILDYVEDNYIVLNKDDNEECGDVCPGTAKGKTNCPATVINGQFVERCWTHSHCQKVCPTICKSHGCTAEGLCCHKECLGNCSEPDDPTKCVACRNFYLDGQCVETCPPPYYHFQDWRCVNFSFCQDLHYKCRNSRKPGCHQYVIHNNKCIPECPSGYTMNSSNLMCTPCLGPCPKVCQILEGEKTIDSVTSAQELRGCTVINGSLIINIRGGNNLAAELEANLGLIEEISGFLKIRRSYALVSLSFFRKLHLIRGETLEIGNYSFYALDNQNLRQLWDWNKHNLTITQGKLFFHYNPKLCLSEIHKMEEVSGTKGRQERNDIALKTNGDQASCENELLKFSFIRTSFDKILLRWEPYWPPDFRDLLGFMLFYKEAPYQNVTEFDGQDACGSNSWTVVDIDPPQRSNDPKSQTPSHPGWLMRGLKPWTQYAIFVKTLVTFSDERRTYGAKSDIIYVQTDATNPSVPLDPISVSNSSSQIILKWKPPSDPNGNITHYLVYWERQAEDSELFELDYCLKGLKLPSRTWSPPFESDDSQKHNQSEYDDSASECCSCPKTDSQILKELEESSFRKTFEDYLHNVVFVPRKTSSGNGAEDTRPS", "test": "Insulin receptor binding assay (competition with 125I-insulin)", "description": "Following incubation for 45 min at 24° C., the mixtures were diluted with 2.0 ml of ice cold 0.1M sodium phosphate, pH 7.4, containing 0.1% fraction V bovine serum albumin and immediately filtered through cellulose-acetate filters. The filters were washed twice with the ice cold buffer, dried, and then radioactivity was counted in a scintillation counter using Filtron-X®.\nInhibition of binding, expressed as per cent of maximum, was plotted as a function of competitor concentration. […] The maximum binding in these assays amounted to 8.2% of the input radioactivity.\nInhibition of binding, expressed as per cent of maximum, was plotted as a function of competitor concentration."}, "rat adipocytes": {"system": "rat adipocytes", "test": "Lipogenesis assay (conversion of [3-3H] glucose into lipids)", "type": "cell-based", "details": "isolated rat adipocytes", "description": "Adipocytes were prepared by incubating epididymal and perirenal fat pads obtained from male rats weighing 200-300 g with 1.0 mg/ml collagenase for 60 min at 37° C., followed by filtration through gauze and then through fine-mesh silk. Cells were washed twice by flotation in a clinical centrifuge before suspension for use. The incubation medium was Krebs-Ringer bicarbonate containing half the recommended calcium, 0.5 mM glucose, and 3% fatty acid free bovine serum albumin, with 95% O2 -5% CO2 as the gas phase. […] Cells were preincubated for 45 min at 37° C. before the addition of [3-^3 H] glucose. Incubation was continued for 60 min and stopped by the addition of 0.2 ml of 5N H2 SO4 and 0.2 ml of corn oil to aid in the extraction of lipids. Samples were extracted with 10 ml of Soluscint-0® for 30 min at room temperature before counting the radioactivity in a scintillation counter. Under these conditions, [3-^3 H] glucose was not extracted into the organic phase containing the scintillation fluors and was essentially uncounted.\nStimulation, expressed as per cent of maximum, was plotted as a function of the agonist concentration. The data points represent the mean of triplicate determinations in representative assays performed four times. […]\nStimulation, expressed as per cent of maximum, was plotted as a function of the agonist concentration. […]"}, "[2]": {"system": "Guinea pig antiserum to porcine insulin", "test": "Insulin radioimmunoassay", "type": "binding", "details": "competition with 125I-insulin for anti-insulin antiserum; ratio of slopes", "description": "After incubation at room temperature overnight, 0.2 ml of the precipitating antibody (goat anti-guinea pig-γ globulin) was added, and the tubes were further incubated overnight at room temperature. Immune precipitates were collected on cellulose-acetate filters and washed with two successive 1.0 mL portions of ice-cold assay buffer. Filters were dried and radioactivity was counted in a scintillation counter in Filtron-X®."}}}
{"substance": "[Asn^B10 ]- insulin", "values": [{"measurement": "potency compared with natural insulin", "setting": "insulin receptor", "value": "reduced potency"}]}
{"substance": "[Lys^B10 ] insulin", "values": [{"measurement": "potency compared with natural insulin", "setting": "insulin receptor", "value": "reduced potency"}]}
{"substance": "[Leu^B10 ]- insulin", "values": [{"measurement": "potency compared with natural insulin", "setting": "insulin receptor", "value": "reduced potency"}]}
{"substance": "des-pentapeptide(B26-B30)-[Tyr^B25 -α-carboxamide]insulin", "values": [{"measurement": "potency greater than insulin", "setting": "insulin receptor; literature (Nakagawa et al.; Casareto et al.)", "value": "270-300%"}]}
{"substance": "des-pentapeptide(B26-B30)-[Phe^B25 -α-carboxamide]insulin", "values": [{"measurement": "potency compared with natural insulin", "setting": "insulin receptor", "value": "comparable potency"}]}
{"substance": "[10-Aspartic acid-B] human insulin", "values": [{"measurement": "potency relative to bovine insulin (concentration ratio required to inhibit 50% of the specific binding of 125I-insulin)", "setting": "[1]; rat liver plasma membranes, 45 min at 24° C., pH 7.4, assay performed four times", "value": "about 534±146%"}, {"measurement": "binding to the insulin receptor, times more tightly than natural insulins", "setting": "[1]; relative to natural insulins", "value": "about five times more tightly"}, {"measurement": "maximum stimulation of lipogenesis compared with bovine insulin", "setting": "rat adipocytes", "value": "full agonist"}, {"measurement": "relative potency (concentration ratio required to produce 50% of the maximum stimulation of lipogenesis) relative to bovine insulin", "setting": "rat adipocytes; [3-3H] glucose, 60 min, assays performed four times", "value": "435±144", "unit": "%"}, {"measurement": "potency in radioimmunoassay relative to bovine insulin", "setting": "[2]", "value": "approximately equal potency"}]}
